Measurements reported in patent US8563027B2, “Drug delivery through hydrogel plugs” (Incept, LLC, priority 2009, dated 2013).
In brackets after ≈: the same amount, converted by molar mass. Where two headings read alike, the source gives them in different places.

Tests used:
[1] = cited from earlier work
[2] = In vitro release of steroids entrapped in hydrogel compared to free drug in PBS; type: physicochemical; conditions: 9% 4a20KSG hydrogel, FIG. 20
Protocol: A 9% 4a20KSG hydrogel was prepared incorporating three different steroids (flunisolide, budesonide, and triamcinolone acetonide).

For CC(C(=O)O)c1ccc(-c2ccccc2)c(F)c1 (stereo not shown) [Flurbiprofen], the Solubility [1] is listed as 0.9 mg/mL (≈ 3680 µM).
In the case of COc1ccc2c(c1)c(CC(=O)O)c(C)n2C(=O)c1ccc(Cl)cc1 [Indomethacin], the Solubility ([1]; pH 7, Form I) is listed as 0.54 mg/mL (≈ 1510 µM) and the Solubility ([1]; pH 7, Form II) is listed as 0.80 mg/mL (≈ 2240 µM).
For Cc1cccc(Nc2ccccc2C(=O)[O-])c1C.[Na+] [Mefanamic Acid], the Solubility ([1]; pH 7.1) is given as 40 μg/ml @ pH 7.1.
For O=C(c1ccccc1)c1ccc2n1CCC2C(=O)O (stereo not shown) [Ketorolac], the Solubility ([1]; in IPB) is given as 10.5 mg/mL (≈ 41100 µM).
In the case of Cc1ccc(Cl)c(Nc2ccccc2C(=O)[O-])c1Cl.[Na+] [Meclofenamate sodium], the Solubility ([1]; pH 7.2) is listed as <50 μg/mL @ pH 7.2 50 mg/mL @ pH 9.0 and the Solubility ([1]; pH 9.0) is listed as <50 μg/mL @ pH 7.2 50 mg/mL @ pH 9.0.
In the case of CC(C(=O)[O][Ca][O]C(=O)C(C)c1cccc(Oc2ccccc2)c1)c1cccc(Oc2ccccc2)c1 (stereo not shown) [Fenoprofen Calcium], the Solubility ([1]; in water) is given as “Slightly soluble in water”.
With CC1(C)O[C@@H]2C[C@H]3[C@@H]4C[C@H](F)C5=CC(=O)C=C[C@]5(C)[C@H]4[C@@H](O)C[C@]3(C)[C@]2(C(=O)CO)O1 [flunisolide] the “Release profile in hydrogel compared to free drug in PBS” value [2] was “slower more sustained drug release profile”.
In the case of Cc1ccc(-c2cc(C(F)(F)F)nn2-c2ccc(S(N)(=O)=O)cc2)cc1 [Celecoxib], the Solubility [1] is listed as 0.005 mg/mL (≈ 13.1 µM).
In the case of O=C(O)c1cc(-c2ccc(F)cc2F)ccc1O [Diflunisal], the Solubility ([1]; pH 7) is given as 3.43 mg/ml @ pH 7.
In the case of COc1c(N2C[C@@H]3CCCN[C@@H]3C2)c(F)cc2c(=O)c(C(=O)O)cn(C3CC3)c12 [Moxifloxacin], the “Solubility in aqueous solutions” value [1] is listed as “readily soluble”.
In the case of NC(=O)Cc1cccc(C(=O)c2ccccc2)c1N [Nepafenac], the Solubility [1] is listed as <1 mg/ml (The drug is available as 0.1% suspension).
In the case of CC(C)OC(=O)CCC/C=C\C[C@@H]1[C@@H](CC[C@@H](O)CCc2ccccc2)[C@H](O)C[C@@H]1O [Latanoprost], the “Solubility in aqueous solutions” value [1] is given as “relatively low solubility”.
In the case of CC(C)Cc1ccc(C(C)C(=O)O)cc1 (stereo not shown) [Ibuprofen], the Solubility ([1]; pH 7) is listed as 10 mg/ml @ pH 7.
For CCc1cccc2c3c([nH]c12)C(CC)(CC(=O)O)OCC3 (stereo not shown) [Etodolac], the Solubility ([1]; in water) is given as “Insoluble in water”.
